Measurements from ChEMBL document CHEMBL5257123, “Synthesis of 6-alkoxy and 6-hydroxy-alkyl amine derivatives of braylin as vasorelaxing agents” (Bioorg Med Chem Lett, 2023).
Active and inactive are the calls of the source. No cut-off for these calls is given here.

Key:
BV-2 [1] = assay: Anti-neuroinflammatory activity in mouse BV2 cells assessed as reduction in LPS-induced TNFalpha production at 10 uM preincubated for 30 mins followed by LPS stimulation measured after 24 hrs by ELISA; format: functional, cell-based; details: time 24.5 hrs
[2] = Cytotoxicity against VSMC (unknown origin) cells assessed as cell survival at 1 uM measured after 12 hrs by MTT assay; format: toxicity, cell-based; details: read-out: Activity
[3] = Cytotoxicity against VSMC (unknown origin) cells assessed as cell survival at 10 uM measured after 12 hrs by MTT assay; format: toxicity, cell-based; details: read-out: Activity
BV-2 [4] = assay: Anti-neuroinflammatory activity in mouse BV2 cells assessed as reduction in LPS-induced IL-6 production at 10 uM preincubated for 30 mins followed by LPS stimulation measured after 24 hrs by ELISA; format: functional, cell-based; details: time 24.5 hrs
Rattus norvegicus [5] = species: Rattus norvegicus; assay: Vasorelaxant activity in MKHS-induced preconstricted rat main mesenteric arterial rings assessed as relaxation response; format: functional; details: Mesenteric artery
Rattus norvegicus [6] = species: Rattus norvegicus; assay: Vasorelaxant activity in U46619-induced contraction rat endothelium-intact main mesenteric arterial rings assessed as relaxation response; format: functional; details: Mesenteric artery
Rattus norvegicus [7] = species: Rattus norvegicus; assay: Vasorelaxant activity in U46619 induced preconstricted rat endothelium-intact thoracic aortic rings assessed as vasorelaxation response; format: functional; details: Thoracic aorta
Rattus norvegicus [8] = species: Rattus norvegicus; assay: Vasorelaxant activity in U46619-induced contraction in rat endothelium-denuded main mesenteric arterial ring assessed as relaxation response relative to control; format: functional; details: Mesenteric artery
Rattus norvegicus [9] = species: Rattus norvegicus; assay: Vasorelaxant activity in U46619-induced contraction rat endothelium-intact main mesenteric arterial rings assessed as relaxation response relative to control; format: functional; details: Mesenteric artery
Rattus norvegicus [10] = species: Rattus norvegicus; assay: Vasorelaxant activity in U46619-induced preconstricted rat endothelium-intact main mesenteric artery assessed as relaxation response; format: functional
Rattus norvegicus [11] = species: Rattus norvegicus; assay: Vasorelaxant activity in U46619-induced contraction in rat endothelium-denuded main mesenteric arterial ring assessed as relaxation response; format: functional; details: Mesenteric artery
Rattus norvegicus [12] = species: Rattus norvegicus; assay: Vasorelaxant activity in U46619-induced preconstricted rat endothelium-intact main mesenteric artery assessed as relaxation response at 30 uM relative to control; format: functional
Rattus norvegicus [13] = species: Rattus norvegicus; assay: Vasorelaxant activity in rat endothelium-intact main mesenteric artery assessed as relaxation response at 10 uM; format: functional
Rattus norvegicus [14] = species: Rattus norvegicus; assay: Vasorelaxant activity in rat endothelium-denuded main mesenteric artery assessed as relaxation response at 10 uM; format: functional
Rattus norvegicus [15] = species: Rattus norvegicus; assay: Vasorelaxant activity in U46619-induced preconstricted rat endothelium-intact main mesenteric artery assessed as relaxation response at 10 uM (reference value: 9.08 +/- 1.25 mN); format: functional; parameters: scale not given: the % may be the effect or the level left

COc1cc2ccc(=O)oc2cc1O [SCOPOLETIN]
Activity (BV-2 [1]): Active
viability at 12 h, 1 µM [2]: 91.2%
viability at 12 h, 10 µM [3]: 102%
Activity (BV-2 [4]): Active

CCCOc1cc2ccc(=O)oc2c2c1OC(C)(C)C=C2
Activity (Rattus norvegicus [5]): Active
EC50 (Rattus norvegicus [6]): 2040 nM
Activity (BV-2 [1]): Active
viability at 12 h, 1 µM [2]: 107%
Activity (Rattus norvegicus [7]): Dose-Dependent Effect
Emax (Rattus norvegicus [8]): 85%
Emax (Rattus norvegicus [9]): 80.6%
EC50 (Rattus norvegicus [10]; read-out: EC50): 1900 nM
EC50 (Rattus norvegicus [10]; read-out: pEC50 (converted)): 2040 nM
viability at 12 h, 10 µM [3]: 105%
Activity (BV-2 [4]): Active
EC50 (Rattus norvegicus [11]): 339 nM
Emax at 30 µM (Rattus norvegicus [12]): 80.6%

COc1cc2ccc(=O)oc2c2c1OC(C)(C)C=C2
Activity (BV-2 [1]): Active
viability at 12 h, 1 µM [2]: 101%
EC50 (Rattus norvegicus [10]; read-out: EC50): 1580 nM
EC50 (Rattus norvegicus [10]; read-out: pEC50 (converted)): 1580 nM
viability at 12 h, 10 µM [3]: 95.2%
Activity (BV-2 [4]): Active

CC1(C)C=Cc2c(c(OCC3CO3)cc3ccc(=O)oc23)O1 (stereo not given)
Emax at 30 µM (Rattus norvegicus [12]): < 50%

CC(C)N(CC(O)COc1cc2ccc(=O)oc2c2c1OC(C)(C)C=C2)C(C)C (stereo not given)
Emax at 30 µM (Rattus norvegicus [12]): < 50%

CC1(C)C=Cc2c(c(OCC(O)CN3CCOCC3)cc3ccc(=O)oc23)O1 (stereo not given)
Emax at 30 µM (Rattus norvegicus [12]): < 50%

CCOc1cc2ccc(=O)oc2c2c1OC(C)(C)C=C2
Activity (Rattus norvegicus [5]): Active
EC50 (Rattus norvegicus [6]): 200 nM
Activity (BV-2 [1]): Active
viability at 12 h, 1 µM [2]: 114%
Activity (Rattus norvegicus [7]): Dose-Dependent Effect
Emax (Rattus norvegicus [8]): 91.4%
Emax (Rattus norvegicus [9]): 96.6%
EC50 (Rattus norvegicus [10]; read-out: pEC50 (converted)): 200 nM
viability at 12 h, 10 µM [3]: 105%
Activity (BV-2 [4]): Active
EC50 (Rattus norvegicus [11]): 195 nM
Emax at 30 µM (Rattus norvegicus [12]): 96.6%

CC(C)Oc1cc2ccc(=O)oc2c2c1OC(C)(C)C=C2
Emax at 30 µM (Rattus norvegicus [12]): < 50%

CC1(C)C=Cc2c(c(OCC(O)CN3CCCC3)cc3ccc(=O)oc23)O1 (stereo not given)
Emax at 30 µM (Rattus norvegicus [12]): < 50%

CCN(CC)CC(O)COc1cc2ccc(=O)oc2c2c1OC(C)(C)C=C2 (stereo not given)
Emax at 30 µM (Rattus norvegicus [12]): < 50%

CCCCN(C)CC(O)COc1cc2ccc(=O)oc2c2c1OC(C)(C)C=C2 (stereo not given)
Emax at 30 µM (Rattus norvegicus [12]): < 50%

CCCCCN(C)CC(O)COc1cc2ccc(=O)oc2c2c1OC(C)(C)C=C2 (stereo not given)
Emax at 30 µM (Rattus norvegicus [12]): < 50%

CC1(C)C=Cc2c(c(OCC(O)CNCc3ccccn3)cc3ccc(=O)oc23)O1 (stereo not given)
Emax at 30 µM (Rattus norvegicus [12]): < 50%

CC1(C)C=Cc2c(c(O)cc3ccc(=O)oc23)O1
Activity (BV-2 [1]): Active
Activity (BV-2 [4]): Active

CCCCOc1cc2ccc(=O)oc2c2c1OC(C)(C)C=C2
Emax at 30 µM (Rattus norvegicus [12]): < 50%

CN1CCN(CC(O)COc2cc3ccc(=O)oc3c3c2OC(C)(C)C=C3)CC1 (stereo not given)
Emax at 30 µM (Rattus norvegicus [12]): < 50%

CC1(C)C=Cc2c(c(OCC(O)CN3CCNCC3)cc3ccc(=O)oc23)O1 (stereo not given)
Emax at 30 µM (Rattus norvegicus [12]): < 50%

CN(C)CC(O)COc1cc2ccc(=O)oc2c2c1OC(C)(C)C=C2 (stereo not given)
Emax at 30 µM (Rattus norvegicus [12]): < 50%

CC(=O)OCC[N+](C)(C)C [ACETYLCHOLINE]
Activity (Rattus norvegicus [13]): Active
Activity (Rattus norvegicus [14]): inactive
Activity (Rattus norvegicus [15]): 88.4%

CCN1CCN(CC(O)COc2cc3ccc(=O)oc3c3c2OC(C)(C)C=C3)CC1 (stereo not given)
Emax at 30 µM (Rattus norvegicus [12]): < 50%

CC1(C)C=Cc2c(ccc3ccc(=O)oc23)O1 [SESALIN]
Activity (BV-2 [1]): Active
EC50 (Rattus norvegicus [10]; read-out: EC50): 2120 nM
EC50 (Rattus norvegicus [10]; read-out: pEC50 (converted)): 2140 nM
Activity (BV-2 [4]): Active
Emax at 30 µM (Rattus norvegicus [12]): 60.8%

CC1(C)C=Cc2c(c(OCC(O)CN3CCCCC3)cc3ccc(=O)oc23)O1 (stereo not given)
Emax at 30 µM (Rattus norvegicus [12]): < 50%
